From US12171203B2, “Transgenic biosensor” (KDT, Inc., priority 2011, dated 2024)

What was measured:
Format in all cases: in vivo, C. elegans
Phsp-16::hRFP reporter = assay: fluorescent plate reader assay of toxin dosage sensitivity, hsp-16::hRFP nematodes; details: 24 hr exposure, ~600 worms per well, assayed in triplicate; read-out: EC50 of red fluorescence response of Phsp-16::hRFP reporter
Excerpt: FIGS. 3A, B, and C show the fluorescence plate-reader sensitivity and toxin response.
For instance, a protein homeostasis reporter was created by fusing heat shock protein to a nuclear localized red fluorescent protein (hsp-16.42::hRFP)(the materials and methods for the construction of the transgenic organism are described in more detail in the examples below). Exposure to heat toxicity generates induction of nuclear localization. This heat shock gene reporter was screened for gene induction capacity using a heat-shock protocol. The hsp-16::hRFP construct is exposed to a 1 hr incubation at 30 C. Gene induction was screened 4 to 24 hrs after heat shock. Significant red fluorescence is observed in the nuclei of heat-shocked worm relative to control (FIG. 5).
Toxin sensitivity of hsp-16 was confirmed with exposure to heavy metals and metalloids. To develop a rapid screen for the hsp-16::hRFP expression, a fluorescent plate reader assay was developed. To test the sensitivity of this assay, a titrating concentration of nematodes were exposed to heat shock. The worms were transferred to a 96 well plate and red fluorescence was quantified. Good sensitivity for a red fluorescence signal occurs at concentrations of 50 or more worms (FIG. 3A). Next, the toxin dosage sensitivity was measured.

nematode population = assay: chronic toxin exposure, effect on nematode population size; details: chronic exposure for 72 hrs, various concentrations
Experimental: FIGS. 4A, B, and C show the population effects of chronic toxin exposure.
Advantageously, the transgenic animals described in these examples can have a control reporter (e.g., constitutively expressed). Exposure to some selected agents or toxins can lead to shortened life-span, lower brood sizes or other effects that need to be controlled. The problem becomes most pronounced in chronic assays. […] Thus, it was determined a control for population mass differences between assay wells is desirable. Introduction of a second constitutively expressed reporter gene can be used to control for various population differences.

ugt-1 promoter reporter = assay: two-color nematode biosensor panel, plate reader assay, ugt-1 reporter; details: cadmium 1 mM, NGM plates, 15 hrs; population-normalized change relative to unexposed control
Excerpt: (§1) Responses are population-normalized changes relative to unexposed control. Error bars indicate […] of 2 to 6 independent measurements. The label “2 line” indicates data derived from combining responses of two independently-derived MosSCI lines for the same reporter.
(§2) The seven different promoters used to create the lines were obtained from genes involved in oxidative stress response. Two genes used were alpha cystallins which respond to cytoplasmic heat shock (hsp-16.2 and hsp-16.41) (David et al. Environ. Toxicol. Chem 2003 January; 22(1):111-118; Hong et al. J. Mol. Biol 2004 November; 344(2):369-381; Candido E P M. Prog. Mol. Subcell. Biol 2002; 28:61-78; Dengg et al. J Pharmacol Toxicol Methods 2004 December; 50(3):209-214; and Strayer et al. FASEB J 2003 December; 17(15):2305-2307). […] The resulting hsRFP reporter construct expresses red fluorescence in cell nuclei. […]
(§3) Changes in expression were quantified with a plate reader assay. […]

[1] = tested on: metallothionein gene (mtl-2) promoter reporter; assay: two-color nematode biosensor panel, plate reader assay, mtl-2 reporter; details: cadmium 1 mM, NGM plates, 15 hrs; population-normalized change relative to unexposed control
Excerpt: as §1, §2, §3

hsp-4 promoter reporter = assay: two-color nematode biosensor panel, plate reader assay, hsp-4 reporter; details: cadmium 1 mM, NGM plates, 15 hrs; population-normalized change relative to unexposed control
Excerpt: as §1, §2, §3

[2] = tested on: hsp-16's (hsp-16.2, hsp-16.41) promoter reporters; assay: two-color nematode biosensor panel, plate reader assay, hsp-16 reporters; details: cadmium 1 mM, NGM plates, 15 hrs; population-normalized change relative to unexposed control
Excerpt: as §1, §2, §3

Compound | EC50 (Phsp-16::hRFP reporter) | effect on population size (nematode population) | induction of expression from ugt-1 reporter (ugt-1 promoter reporter) | induction of metallothionein gene expression (reporter) [1] | induction of expression from hsp-4 reporter (hsp-4 promoter reporter) | induction of expression from hsp-16's reporters [2]
[Cl][Cd][Cl] [cadmium, cadmium chloride] | ~200 µM | significant population effects | only mildly induced | primarily induced | only mildly induced | only mildly induced
sodium bis-arsenite [arsenic] | ~1500 µM | – | – | – | – | –
